# Results: patent US6689814B1, “Use of dialkyldialkylammonium halide for the preparation of a virucidal medicament intended to be administered by the systemic route” (priority 1998, dated 2004)
# Where “and” joins values, the source holds several entries; their conditions need not be identical. Identical values can stand only once.
# How the values were obtained:
# Herpesvirus simplex [1] = assay: Example 3: protocol of Example 2 with two batches of 52 animals; type: in vivo, mice
# Protocol: (§1) A test similar to the one described in Example 1 was carried out using two groups of 17 mice, one Herpesvirus simplex batch having a titer of 2×10^2 PFU/ml, by inoculating a Bardac® dose of 0.018 mg by injection (that is to say a daily-dose of 0.036 mg) and following the protocol below: on day D0, Bardac® is injected and, 12 hours later, nasal instillation of the virus is carried out, followed by intraperitoneal injections of Bardac® every twelve hours. Monitoring was carried out twice per day for six days.
# (§2) At the end of the monitoring period, the lungs of the animals in the two groups were collected for culturing, in order to detect the presence of the virus. Detection of the virus is carried out as follows: the lung is homogenized in a DOUNCE® mixer and then suspended in a sterile test tube and centrifuged for 10 minutes at 2000 rpm. If the sample is not analyzed immediately, it is stored at −80° C. The infectious titer of the lung is given by titrating the virions present in 0.3 ml of centrifugation supernatant and multiplying the number of PFU by ten.
# The protocol followed is identical to that of Example 2 with two batches of 52 animals.
# [2] = mouse, according to the manufacturer (LONZA); cited from earlier work
# Herpesvirus simplex [3] = assay: Example 1: Herpes simplex nasal infection of Nude mice, Bardac intraperitoneal, 14-day monitoring; type: in vivo, nu/nu Nude mice; conditions: 0.025 mg i.p. twice a day
# Source text: Three-week-old female nu/nu Nude mice, having an average weight of 6 to 8 g, divided into two batches of 20 animals, a control group receiving only the virus (curve -x- in FIG. 1), and one group being treated with Bardac® (curve -●- in FIG. 1).
# Herpesvirus simplex batch having a titer of 10′ PFU (Plaque Forming Units)/ml.
# Didecyldimethylammonium chloride (Bardac®) provided by the Swiss company Lonza and used in the form of a dilution in an isotonic saline solution.
# Inoculation of the virus: 30 μl by the nasal route of pure viral suspension, which corresponds to an installation of about 10^4 PFU (viral load). The inoculation is carried out according to the protocol described by KERN et al. in Antiviral Res., 1986, 6, 189-195. One mouse died during the nasal instillation.
# Bardac®: inoculation by the intraperitoneal route, twice a day of a dose of 0.025 mg of the product by injection, i.e. a daily dose of 0.050 mg. According to the manufacturer (LONZA), the LD50 by the intravenous route is about 0.20 mg/10 g of mouse.
# On day D0, Bardac® is injected in the morning, and 4 hours later nasal instillation of the virus is carried out, followed 6 hours later by the second injection of Bardac®; on the following days, the injections were carried out around 9 am and 5 pm.
# Herpesvirus simplex [4] = assay: Example 2: Herpes simplex nasal infection of mice, Bardac intraperitoneal, 6-day monitoring and lung infectious titer; type: in vivo
# Protocol: as §1, §2
smiles,measurement,setting,value
"CCCCCCCCCC[N+](C)(C)CCCCCCCCCC.[Cl-] [Bardac®, didecyldimethylammonium chloride]","infectious titer in the lung, individual infected treated mouse",Herpesvirus simplex [1]; mouse alive at D6,> 1000 PFU (2×) and 20 PFU (2×) and 120 PFU and 250 PFU and 80 PFU
same,"infectious titer in the lung, individual infected treated mouse",Herpesvirus simplex [1]; mouse dead at D3,> 1000 PFU and 50 PFU
same,"infectious titer in the lung, individual infected treated mouse",Herpesvirus simplex [1]; mouse dead at D5,300 PFU and 160 PFU and 50 PFU and 40 PFU
same,total infectious titer,"Herpesvirus simplex [1]; sum over the 13 infected treated mice, control >11930",>4100 PFU
same,factor by which the infectious titer (in PFU) is reduced,"Herpesvirus simplex [1]; treated animals versus control group, overall",3
same,number of live mice on the sixth day,"Herpesvirus simplex [1]; treated group of 52 mice, control 22",39
same,number of mice infected with the virus,"Herpesvirus simplex [1]; treated group of 52 mice, control 37",13
same,percentage of survivors on the sixth day,"Herpesvirus simplex [1]; treated group of 52 mice, control 42%",75%
same,percentage of mice infected with the virus,"Herpesvirus simplex [1]; treated group of 52 mice, control 71%",25%
same,LD50 by the intravenous route,[2],about 0.20 mg/10 g of mouse
same,percentage of survivals,"Herpesvirus simplex [3]; treated group of 20 mice, about 10^4 PFU nasal, 14 days monitoring, control 10%",45%
same,average duration of the disease,"Herpesvirus simplex [3]; treated group, control 8.5 days",9.2 days
same,"infectious titer in the lung, individual treated mouse",Herpesvirus simplex [4]; mouse alive at D6,0 PFU (7×) and 20 PFU (2×) and 100 PFU
same,"infectious titer in the lung, individual treated mouse",Herpesvirus simplex [4]; mouse dead at D5,0 PFU
same,"infectious titer in the lung, individual treated mouse",Herpesvirus simplex [4]; mouse dead at D6,0 PFU (2×) and 20 PFU and 150 PFU and 50 PFU and 200 PFU
same,total infectious titer in the lungs,"Herpesvirus simplex [4]; sum over the 17 treated mice, control >3200",560 PFU
same,percentage of survivals on day D6,"Herpesvirus simplex [4]; treated group of 17 mice, 0.018 mg i.p. every twelve hours, control 29%",59%
same,mice alive on day D6,"Herpesvirus simplex [4]; treated group of 17 mice, 0.018 mg i.p. every twelve hours, control five",ten
same,number of infected mice,"Herpesvirus simplex [4]; treated group of 17 mice, control 15",7
same,percentage of mice infected,"Herpesvirus simplex [4]; treated group of 17 mice, control 88%",41%
same,effect on mortality and infectious titer (in words),Herpesvirus simplex [4]; treated group versus control group,less affected by the virus
